From US11524966B1 (Valo Early Discovery, Inc., priority 2017, dated 2022)

These compounds were tested against T1, USP28 (USP28-5(1-1077)-TEV-6*His; LifeSensors) (Homo sapiens, UniProt Q96RU2) (assay: Ubiquitin-Rhodamine 110 Assay for USP28 Activity, Example A-1(b)). Details: Ub-Rh110 assay, Example A-1(b).
T1 construct: construct USP28 (USP28-5(1-1077)-TEV-6*His; LifeSensors); TEV cleavage site (C); 6xHis (C); purchased LifeSensors
T1 sequence (Q96RU2 1-1077): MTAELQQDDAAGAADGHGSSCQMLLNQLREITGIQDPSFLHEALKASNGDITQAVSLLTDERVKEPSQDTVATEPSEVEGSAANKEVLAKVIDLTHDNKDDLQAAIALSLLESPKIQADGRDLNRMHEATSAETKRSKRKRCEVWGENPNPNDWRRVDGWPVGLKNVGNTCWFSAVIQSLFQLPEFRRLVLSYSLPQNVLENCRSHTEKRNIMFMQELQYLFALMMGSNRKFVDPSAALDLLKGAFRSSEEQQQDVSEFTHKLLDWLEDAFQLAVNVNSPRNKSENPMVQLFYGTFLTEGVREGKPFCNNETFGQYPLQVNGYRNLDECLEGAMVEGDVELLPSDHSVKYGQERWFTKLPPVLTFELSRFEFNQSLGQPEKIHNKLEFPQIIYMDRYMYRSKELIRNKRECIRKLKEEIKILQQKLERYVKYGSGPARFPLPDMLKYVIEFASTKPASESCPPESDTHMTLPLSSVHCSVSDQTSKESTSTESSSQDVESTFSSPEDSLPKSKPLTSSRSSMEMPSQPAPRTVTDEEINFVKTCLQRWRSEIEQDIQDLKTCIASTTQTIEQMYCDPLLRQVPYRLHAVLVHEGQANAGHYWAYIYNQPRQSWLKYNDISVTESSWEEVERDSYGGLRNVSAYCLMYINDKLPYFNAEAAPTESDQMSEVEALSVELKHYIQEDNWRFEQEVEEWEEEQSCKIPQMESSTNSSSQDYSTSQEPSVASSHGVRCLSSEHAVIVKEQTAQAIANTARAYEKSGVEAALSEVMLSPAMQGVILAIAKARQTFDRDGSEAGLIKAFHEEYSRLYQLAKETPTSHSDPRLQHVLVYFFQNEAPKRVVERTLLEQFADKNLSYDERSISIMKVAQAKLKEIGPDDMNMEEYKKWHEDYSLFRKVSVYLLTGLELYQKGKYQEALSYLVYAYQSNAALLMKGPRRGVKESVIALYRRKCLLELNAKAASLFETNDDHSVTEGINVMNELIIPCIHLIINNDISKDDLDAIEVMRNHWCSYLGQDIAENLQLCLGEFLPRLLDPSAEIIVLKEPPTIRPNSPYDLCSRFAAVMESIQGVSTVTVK
Assay type: biochemical
In short: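 Single-point screening used 10 μM compound with 90 min room-temperature incubation; follow-up dose-responses (25 μM top, 3-fold) used 75 pM USP28 1-1077 construct, 30 min compound preincubation, 25 nM Ub-Rh110, 20 min reaction, citric acid quench. Rh110 fluorescence normalised to no-enzyme and DMSO controls; IC50 from 4-parameter logistic fit.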

| Structure (SMILES) | USP28 A-1(b) IC50 range |
| --- | --- |
| Cc1nc2sc(C(=O)N[C@H]3COc4cc(N5CC6CC(C5)N6)ccc4C3)c(N)c2s1 [Example 2-26, N-((3R)-7-(3,6-diazabicyclo[3.1.1]heptan-3-yl)chroman-3-yl)-6-amino-2-methylthieno[2,3-d]thiazole-5-carboxamide] | ++ (0.2-2 μM) |
| Cc1nc2sc(C(=O)N[C@H]3COc4cc(N5CC6CCCC(C5)N6)ccc4C3)c(N)c2s1 [Example 2-27] | ++ (0.2-2 μM) |
| Cc1nc2sc(C(=O)N[C@H]3COc4cc(N5CC6CNCC(C5)C6(F)F)ccc4C3)c(N)c2s1 [Example 2-28, 6-amino-N-((3R)-7-(9,9-difluoro-3,7-diazabicyclo[3.3.1]nonan-3-yl)chroman-3-yl)-2-methylthieno[2,3-d]thiazole-5-carboxamide] | +++ (0.05-0.2 μM) |
| CCn1ccc2cc(C(=O)N[C@H]3COc4cc(N5CC6CCCC(C5)N6)ccc4C3)nnc21 [Example 2-29, N-((3R)-7-(3,9-diazabicyclo[3.3.1]nonan-3-yl)chroman-3-yl)-7-ethyl-7H-pyrrolo[2,3-c]pyridazine-3-carboxamide] | ++ (0.2-2 μM) |
| CCn1ccc2cc(C(=O)N[C@H]3COc4cc(N5CC6CNCC(C5)C6(F)F)ccc4C3)cnc21 [Example 2-30, N-((3R)-7-(9,9-difluoro-3,7-diazabicyclo[3.3.1]nonan-3-yl)chroman-3-yl)-1-ethyl-1H-pyrrolo[2,3-b]pyridine-5-carboxamide] | ++++ (0.001-0.05 μM) |
| Cc1ccc2c(N)c(C(=O)N[C@H]3COc4cc(N5CC6CNCC(C5)C6(F)F)c(C#N)cc4C3)sc2n1 [Example 2-33, 3-amino-N-((3R)-6-cyano-7-(9,9-difluoro-3,7-diazabicyclo[3.3.1]nonan-3-yl)chroman-3-yl)-6-methylthieno[2,3-b]pyridine-2-carboxamide] | ++++ (0.001-0.05 μM) |
